Test results published in PubChem BioAssay AID2060502 (Molecular Pharmacology Branch, DTP, NCI, 2025).

System: 885724-159-R-J1-PDC complex spheroid viability
Assay: Anticancer human tumor 885724-159-R-J1-PDC patient-derived pancreatic adenocarcinoma cell line growth inhibition [GQUAD]
Conditions: for IC50: curve of first compound; for viability, T/C: stronger effect = lower value
Outline: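 Multi-cell-type spheroids of tumor cells with HUVEC and mesenchymal stem cells, treated with drug combinations. Concentrations descend in half-log steps from near clinical Cmax, or from 10 microM where Cmax is unknown; viability read-out.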

[1] = second compound 0.0316 µM, first compound 0.0316 µM
[2] = second compound 0.0316 µM, first compound 0.1 µM
[3] = second compound 0.0316 µM, first compound 0.316 µM
[4] = second compound 0.0316 µM, first compound 1 µM
[5] = second compound 0.0316 µM, first compound 3.16 µM
[6] = second compound 0.0316 µM, first compound 10 µM
[7] = second compound 0.1 µM, first compound 0.0316 µM
[8] = second compound 0.1 µM, first compound 0.1 µM
[9] = second compound 0.1 µM, first compound 0.316 µM
[10] = second compound 0.1 µM, first compound 1 µM
[11] = second compound 0.1 µM, first compound 3.16 µM
[12] = second compound 0.1 µM, first compound 10 µM
[13] = second compound 0.316 µM, first compound 0.0316 µM
[14] = second compound 0.316 µM, first compound 0.1 µM
[15] = second compound 0.316 µM, first compound 0.316 µM
[16] = second compound 0.316 µM, first compound 1 µM
[17] = second compound 0.316 µM, first compound 3.16 µM
[18] = second compound 0.316 µM, first compound 10 µM
[19] = second compound 1 µM, first compound 0.0316 µM
[20] = second compound 1 µM, first compound 0.1 µM
[21] = second compound 1 µM, first compound 0.316 µM
[22] = second compound 1 µM, first compound 1 µM
[23] = second compound 1 µM, first compound 3.16 µM
[24] = second compound 1 µM, first compound 10 µM
[25] = second compound 3.16 µM, first compound 0.0316 µM
[26] = second compound 3.16 µM, first compound 0.1 µM
[27] = second compound 3.16 µM, first compound 0.316 µM
[28] = second compound 3.16 µM, first compound 1 µM
[29] = second compound 3.16 µM, first compound 3.16 µM
[30] = second compound 3.16 µM, first compound 10 µM
[31] = second compound 10 µM, first compound 0.0316 µM
[32] = second compound 10 µM, first compound 0.1 µM
[33] = second compound 10 µM, first compound 0.316 µM
[34] = second compound 10 µM, first compound 1 µM
[35] = second compound 10 µM, first compound 3.16 µM
[36] = second compound 10 µM, first compound 10 µM
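Also: spheroids exposed to agents for seven days before readout.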
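For viability, T/C in this document: percent of vehicle control viability where 100% = DMSO wells.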

What does the source list for `C=CCn1c(=O)c2cnc(Nc3ccc(N4CCN(C)CC4)cc3)nc2n1-c1cccc(C(C)(C)O)n1` + CN(C)c1ccc(Nc2c3ccc(NC(=O)CCN4CCCC4)cc3nc3cc(NC(=O)CCN4CCCC4)ccc23)cc1?
IC50 (second compound 0.0316 µM): > 10000 nM; IC50 (second compound 0.1 µM): > 10000 nM; IC50 (second compound 0.316 µM): > 10000 nM; IC50 (second compound 1 µM): 3830 nM; IC50 (second compound 3.16 µM): 714 nM; IC50 (second compound 10 µM): 1340 nM; viability, T/C [1]: 99%; viability, T/C [2]: 86.2%; viability, T/C [3]: 74.4%; viability, T/C [4]: 81.6%; viability, T/C [5]: 72.4%; viability, T/C [6]: 73%; viability, T/C [7]: 95.4%; viability, T/C [8]: 83.6%; viability, T/C [9]: 79.3%; viability, T/C [10]: 73.7%; viability, T/C [11]: 71.3%; viability, T/C [12]: 72.5%; viability, T/C [13]: 92%; viability, T/C [14]: 81.8%; viability, T/C [15]: 69.5%; viability, T/C [16]: 63.4%; viability, T/C [17]: 57.7%; viability, T/C [18]: 52.3%; viability, T/C [19]: 83.5%; viability, T/C [20]: 66.7%; viability, T/C [21]: 60.4%; viability, T/C [22]: 44.1%; viability, T/C [23]: 57.2%; viability, T/C [24]: 47.3%; viability, T/C [25]: 82.6%; viability, T/C [26]: 60.7%; viability, T/C [27]: 61.2%; viability, T/C [28]: 40.7%; viability, T/C [29]: 52.1%; viability, T/C [30]: 38.7%; viability, T/C [31]: 68.3%; viability, T/C [32]: 69.5%; viability, T/C [33]: 56.7%; viability, T/C [34]: 50.4%; viability, T/C [35]: 45.7%; viability, T/C [36]: 19.6%

For `CC(C)(O)C1CCC(Nc2ccc3ncc(-c4cccc(C(F)(F)F)c4)n3n2)CC1` (centres undefined) + Cc1[nH]c2ccc(F)cc2c1-c1nc2c3cccnc3c3ncccc3c2[nH]1, which IC50 (second compound 0.0316 µM) is on record?
Its IC50 is 2500 nM.

What about the IC50 (second compound 0.1 µM) of the same compound?
The IC50 was 2760 nM.

And the IC50 (second compound 0.316 µM)?
The IC50 was 1520 nM.

And the IC50 (second compound 1 µM)?
Its IC50 is 538 nM.

What about the IC50 (second compound 3.16 µM) of the same compound?
The IC50 was under 31.6 nM.

And the IC50 (second compound 10 µM)?
The IC50 was 1030 nM.

What about the viability, T/C [1] of the same compound?
Its viability, T/C is 96.3%.

And the viability, T/C [2]?
The viability, T/C was 93.1%.

What about the viability, T/C [3] of the same compound?
The viability, T/C was 83.1%.

And the viability, T/C [4]?
The viability, T/C was 84.6%.

What about the viability, T/C [5] of the same compound?
The viability, T/C was 37.3%.

What about the viability, T/C [6] of the same compound?
The viability, T/C was 44.7%.

What about the viability, T/C [7] of the same compound?
The viability, T/C was 97.1%.

What about the viability, T/C [8] of the same compound?
Its viability, T/C is 91.6%.

What about the viability, T/C [9] of the same compound?
Its viability, T/C is 77.4%.

And the viability, T/C [10]?
Its viability, T/C is 72.1%.

And the viability, T/C [11]?
Its viability, T/C is 41.4%.

What about the viability, T/C [12] of the same compound?
Its viability, T/C is 41.2%.

What about the viability, T/C [13] of the same compound?
The viability, T/C was 90.5%.

What about the viability, T/C [14] of the same compound?
Its viability, T/C is 78.3%.

And the viability, T/C [15]?
The viability, T/C was 82.8%.

What about the viability, T/C [16] of the same compound?
The viability, T/C was 55.5%.

What about the viability, T/C [17] of the same compound?
The viability, T/C was 40.7%.

What about the viability, T/C [18] of the same compound?
The viability, T/C was 38.3%.

What about the viability, T/C [19] of the same compound?
Its viability, T/C is 77%.

And the viability, T/C [20]?
The viability, T/C was 58.2%.

What about the viability, T/C [21] of the same compound?
The viability, T/C was 57.2%.

What about the viability, T/C [22] of the same compound?
Its viability, T/C is 47.6%.

What about the viability, T/C [23] of the same compound?
Its viability, T/C is 33.8%.

What about the viability, T/C [24] of the same compound?
Its viability, T/C is 29.6%.

And the viability, T/C [25]?
The viability, T/C was 19.3%.

What about the viability, T/C [26] of the same compound?
The viability, T/C was 8.78%.

What about the viability, T/C [27] of the same compound?
Its viability, T/C is 9.83%.

What about the viability, T/C [28] of the same compound?
Its viability, T/C is 9.8%.

And the viability, T/C [29]?
Its viability, T/C is 7.07%.

What about the viability, T/C [30] of the same compound?
Its viability, T/C is 7.05%.

And the viability, T/C [31]?
The viability, T/C was 67.9%.

What about the viability, T/C [32] of the same compound?
The viability, T/C was 59%.

And the viability, T/C [33]?
The viability, T/C was 57.7%.

And the viability, T/C [34]?
Its viability, T/C is 50.5%.

What about the viability, T/C [35] of the same compound?
The viability, T/C was 28.2%.

And the viability, T/C [36]?
The viability, T/C was 35.4%.
